In the supplement of paper PMC13380429:

Assays:
Conditions in all cases: 72 h
HepG2 [1] = assay: drug sensitivity score (DSS) for viability; higher = more toxic; extreme values may be limits of the assay
Calu-3 [2] = assay: as above
Caco-2 [3] = assay: as above
U2OS [4] = assay: as above
Vero E6 [5] = assay: as above
HepG2 [6] = assay: relative viability EC50 (midpoint between 100% and the lowest measured viability); higher = less toxic
Calu-3 [7] = assay: as above
Caco-2 [8] = assay: as above
U2OS [9] = assay: as above
Vero E6 [10] = assay: as above
HepG2 [11] = assay: cell viability relative to DMSO; higher = less toxic
Calu-3 [12] = assay: as above
Caco-2 [13] = assay: as above
U2OS [14] = assay: as above
Vero E6 [15] = assay: as above

Row | Compound | drug sensitivity score (HepG2 [1]) | drug sensitivity score (Calu-3 [2]) | drug sensitivity score (Caco-2 [3]) | drug sensitivity score (U2OS [4]) | drug sensitivity score (Vero E6 [5]) | relative viability EC50 (HepG2 [6]) [µM] | relative viability EC50 (Calu-3 [7]) [µM] | relative viability EC50 (Caco-2 [8]) [µM] | relative viability EC50 (U2OS [9]) [µM] | relative viability EC50 (Vero E6 [10]) [µM] | cell viability (HepG2 [11]; 1 nM) [%] | cell viability (HepG2 [11]; 10 nM) [%] | cell viability (HepG2 [11]; 100 nM) [%] | cell viability (HepG2 [11]; 1000 nM) [%] | cell viability (HepG2 [11]; 10000 nM) [%] | cell viability (Calu-3 [12]; 1 nM) [%] | cell viability (Calu-3 [12]; 10 nM) [%] | cell viability (Calu-3 [12]; 100 nM) [%] | cell viability (Calu-3 [12]; 1000 nM) [%] | cell viability (Calu-3 [12]; 10000 nM) [%] | cell viability (Caco-2 [13]; 1 nM) [%] | cell viability (Caco-2 [13]; 10 nM) [%] | cell viability (Caco-2 [13]; 100 nM) [%] | cell viability (Caco-2 [13]; 1000 nM) [%] | cell viability (Caco-2 [13]; 10000 nM) [%] | cell viability (U2OS [14]; 1 nM) [%] | cell viability (U2OS [14]; 10 nM) [%] | cell viability (U2OS [14]; 100 nM) [%] | cell viability (U2OS [14]; 1000 nM) [%] | cell viability (U2OS [14]; 10000 nM) [%] | cell viability (Vero E6 [15]; 1 nM) [%] | cell viability (Vero E6 [15]; 10 nM) [%] | cell viability (Vero E6 [15]; 100 nM) [%] | cell viability (Vero E6 [15]; 1000 nM) [%] | cell viability (Vero E6 [15]; 10000 nM) [%]
1 | CC1CCN(CC[C@H]2CCCN2S(=O)(=O)c2cccc(O)c2)CC1 | 0 | 0 | 0 | 0 | 0 | > 10 | > 10 | > 10 | > 10 | > 10 | 91.9 | 98.1 | 103 | 96.7 | 101 | 90.1 | 94.8 | 92.3 | 100 | 105 | 90.4 | 86.5 | 96.1 | 91.5 | 102 | 94.3 | 101 | 93.4 | 104 | 101 | 100 | 93.5 | 96.8 | 93.8 | 105
2 | COc1ccc2[nH]c(I)c(CCNC(C)=O)c2c1 [2-iodomelatonin] | 0 | 0 | 0 | 0 | 0 | > 10 | > 10 | > 10 | > 10 | > 10 | 105 | 98.6 | 113 | 96.5 | 105 | 99.5 | 100 | 103 | 92.7 | 94.8 | 98.5 | 106 | 94.6 | 104 | 96.2 | 95.3 | 103 | 94.9 | 97.9 | 102 | 94.6 | 93.1 | 92.4 | 94.9 | 108
3 | CCCCCCCCCCCCCCCC[N+](C)(C)Cc1ccccc1 [benzyldimethylhexadecylammonium] | 4.8 | 3 | 6.3 | 4.6 | 0 | 2.41 | 3.39 | 2.12 | 3.28 | > 10 | 113 | 101 | 102 | 93.7 | 30.6 | 94.9 | 105 | 105 | 102 | 41.2 | 93.9 | 96.1 | 91.9 | 89.4 | 18 | 99.6 | 101 | 102 | 102 | 14.1 | 99 | 94.6 | 100 | 94.5 | 92.8
4 | CCCC(=O)Nc1ccc(OCC(O)CNC(C)C)c(C(C)=O)c1 (stereo not given) [acebutolol] | 0 | 0 | 0 | 0 | 0 | > 10 | > 10 | > 10 | > 10 | > 10 | 106 | 88.6 | 104 | 88.7 | 104 | 95.3 | 104 | 104 | 117 | 88.5 | 102 | 94.8 | 93 | 104 | 96.1 | 90.4 | 96.3 | 95.2 | 98 | 101 | 88.2 | 96.9 | 93.8 | 81.9 | 95.6
5 | CCOC(=O)Nc1ccc(NCc2c(C)cc(C)cc2C)cc1N | 0 | 0 | 0 | 0 | 0 | > 10 | > 10 | > 10 | > 10 | > 10 | 99.5 | 95.6 | 96.5 | 92.8 | 100 | 110 | 110 | 97.3 | 104 | 96.8 | 101 | 92.6 | 101 | 97.4 | 99 | 95.9 | 103 | 98.9 | 103 | 93.1 | 99.4 | 96.7 | 90.3 | 93.3 | 99.7
6 | CN(C)C(=O)n1nnnc1Cc1ccc(-c2ccccc2)cc1 | 3 | 2.3 | 2.8 | 4.5 | 3.7 | 3.19 | 3.91 | 3.62 | 3.44 | 3.32 | 125 | 108 | 110 | 100 | 43.3 | 102 | 98 | 95.2 | 111 | 44.9 | 106 | 106 | 100 | 106 | 40.1 | 102 | 105 | 102 | 104 | 13.6 | 107 | 106 | 103 | 102 | 29.1
7 | O=C(NCc1ccc(F)cc1)N1CCN2C(=O)OC(c3ccccc3)(c3ccccc3)[C@@H]2C1 (racemic) [SHA-68] | 0 | 0 | 0.5 | 0 | 0 | > 10 | > 10 | > 10 | > 10 | > 10 | 100 | 102 | 98 | 107 | 110 | 99.7 | 110 | 104 | 100 | 97.2 | 101 | 101 | 89.1 | 93.6 | 85 | 101 | 95.6 | 100 | 96.6 | 96.8 | 97.1 | 96.8 | 98.3 | 102 | 100
8 | Cc1ccccc1N1CCN(S(=O)(=O)C[C@]23CC[C@H](C[C@@H]2NC(=O)[C@@H](N)CCS(C)(=O)=O)C3(C)C)CC1 | 0 | 0 | 0 | 0 | 0 | > 10 | > 10 | > 10 | > 10 | > 10 | 109 | 94.7 | 107 | 111 | 108 | 98.2 | 103 | 94.3 | 105 | 99.5 | 97.5 | 93.3 | 90 | 108 | 96.5 | 95.3 | 96.4 | 95.8 | 101 | 103 | 101 | 93.8 | 98 | 87.6 | 110
9 | CCN(C)C(=O)Oc1cccc([C@H](C)N(C)C)c1 [rivastigmine] | 0 | 0 | 0 | 0 | 0 | > 10 | > 10 | > 10 | > 10 | > 10 | 113 | 102 | 98 | 106 | 98.2 | 93.5 | 95 | 101 | 98.3 | 94.4 | 109 | 95.5 | 104 | 96.7 | 95.8 | 95.8 | 99.2 | 99.9 | 98.7 | 103 | 101 | 106 | 103 | 106 | 97.6
10 | CC[C@@H]1C(=O)OC[C@@H]1Cc1cncn1C [pilocarpine] | 0 | 0 | 0 | 0 | 0 | > 10 | > 10 | > 10 | > 10 | > 10 | 97.7 | 95.3 | 105 | 104 | 105 | 109 | 102 | 103 | 98.4 | 97.9 | 100 | 98.1 | 88.7 | 91.3 | 103 | 106 | 101 | 101 | 99.2 | 100 | 106 | 104 | 99.3 | 106 | 103
11 | CCOC(=O)NNc1nncc2ccccc12 [todralazine] | 0 | 0 | 0 | 0 | 0 | > 10 | > 10 | > 10 | > 10 | > 10 | 79.3 | 97.3 | 125 | 112 | 97.3 | 84.4 | 109 | 101 | 110 | 103 | 90.4 | 111 | 84.2 | 94.4 | 117 | 98.6 | 100 | 97.1 | 102 | 105 | 101 | 88.3 | 97.3 | 91.5 | 99.4
12 | NC(=O)C(c1ccccc1)(c1ccc(F)cc1)c1ccc(F)cc1 [senicapoc] | 0 | 0 | 0 | 0 | 0 | > 10 | > 10 | > 10 | > 10 | > 10 | 93.4 | 98.8 | 96.4 | 95.5 | 97.7 | 99 | 96.7 | 99 | 102 | 92.3 | 101 | 105 | 102 | 92.4 | 99.4 | 102 | 96.9 | 104 | 98.8 | 98.8 | 96.9 | 99.1 | 94.5 | 97.3 | 92.9
13 | CCS(=O)(=O)N(C)[C@@H]1c2cc(C#N)ccc2OC(C)(C)[C@H]1O.CCS(=O)(=O)N(C)[C@H]1c2cc(C#N)ccc2OC(C)(C)[C@@H]1O (racemic) [chromanol-(+/-)] | 0 | 0 | 0 | 0 | 0 | > 10 | > 10 | > 10 | > 10 | > 10 | 106 | 105 | 100 | 96.7 | 94.6 | 103 | 99.8 | 92.5 | 102 | 97.5 | 90.9 | 89.9 | 100 | 106 | 93.5 | 100 | 96.9 | 102 | 96.2 | 102 | 101 | 102 | 101 | 103 | 95.6
14 | C[C@@H](CCCCC(=O)Nc1ccc(C(F)(F)F)cc1)NCCc1c[nH]cn1 [HTMT] | 0 | 0 | 0 | 0 | 0 | > 10 | > 10 | > 10 | > 10 | > 10 | 110 | 95.6 | 104 | 104 | 98 | 100 | 97.8 | 100 | 106 | 100 | 97.2 | 92.8 | 87 | 99.4 | 94.1 | 99.9 | 100 | 96.9 | 101 | 106 | 98.3 | 94.7 | 98 | 100 | 108
